Results from ChEMBL document CHEMBL3885861, “Open TG-GATES”.

Species: Rattus norvegicus
Experiment: Open TG-GATES - Regimen: Single
Format: toxicity, organism-based, Sprague-Dawley
Parameters: regimen Single, gender Male, age 6 weeks
Conditions: in vivo, po, 24 h, route gavage; for Bas / Eos / Hb / Ht / Lym / MCH / MCHC / MCV / Mono / Neu / Plat / RBC / Ret / WBC: tissue Blood; for KIDNEY_L / KIDNEY_R / KIDNEY_TOTAL: tissue Kidney; for LIVER: tissue Liver; for A/G / ALP / ALT / AST / BUN / CRE / Ca / Cl / DBIL / GLC / IP / K / Na / PL / RALB / TBIL / TC / TG / TP / gamma-GTP: tissue Plasma

## COc1cc2c(c3oc(=O)c4c(c13)CCC4=O)[C@@H]1C=CO[C@@H]1O2 [AFLATOXIN]
0 mg/kg, dose level Control
  TERMINAL_BW: 227.2 g
  Bas: 0%
  Eos: 1%
  Hb: 12.7 g/dL
  Ht: 37.5%
  Lym: 79%
  MCH: 20.7 pg
  MCHC: 33.9%
  MCV: 60.9 fL
  Mono: 2.8%
  Neu: 16.2%
  Plat: 118.1 x10_4/uL
  RBC: 616 x10_4/ul
  Ret: 8.7%
  WBC: 76.8 x10_2/uL
  KIDNEY_L: 1 g
  KIDNEY_R: 1 g
  KIDNEY_TOTAL: 2.1 g
  LIVER: 10.9 g
  A/G: 1
  ALP: 1775.8 IU/L
  ALT: 40 IU/L
  AST: 72.2 IU/L
  BUN: 16.5 mg/dL
  CRE: 0.2 mg/dL
  Ca: 10.8 mg/dL
  Cl: 104.1 meq/L
  DBIL: 0.002 mg/dL
  GLC: 189.4 mg/dL
  IP: 7 mg/dL
  K: 4.5 meq/L
  Na: 139.2 meq/L
  PL: 153.4 mg/dL
  RALB: 2.8 g/dL
  TBIL: 0 mg/dL
  TC: 76.2 mg/dL
  TG: 141.9 mg/dL
  TP: 5.7 g/dL
  gamma-GTP: 0.8 IU/L
1 mg/kg, dose level Low
  TERMINAL_BW: 220.4 g
  Bas: 0%
  Eos: 0.8%
  Hb: 12.8 g/dL
  Ht: 37.6%
  Lym: 74.6%
  MCH: 20.5 pg
  MCHC: 34.2%
  MCV: 60 fL
  Mono: 4.8%
  Neu: 19.2%
  Plat: 127.7 x10_4/uL
  RBC: 627.4 x10_4/ul
  Ret: 8.8%
  WBC: 97.6 x10_2/uL
  KIDNEY_L: 1 g
  KIDNEY_R: 1 g
  KIDNEY_TOTAL: 2 g
  LIVER: 10.2 g
  A/G: 1
  ALP: 1769.4 IU/L
  ALT: 59.6 IU/L
  AST: 97 IU/L
  BUN: 15.7 mg/dL
  CRE: 0.2 mg/dL
  Ca: 10.7 mg/dL
  Cl: 103.9 meq/L
  DBIL: 0.002 mg/dL
  GLC: 171.4 mg/dL
  IP: 7.5 mg/dL
  K: 4.4 meq/L
  Na: 138.8 meq/L
  PL: 150.2 mg/dL
  RALB: 2.8 g/dL
  TBIL: 0 mg/dL
  TC: 84.4 mg/dL
  TG: 93.8 mg/dL
  TP: 5.7 g/dL
  gamma-GTP: 1 IU/L
